The text below walks through data of article PMC9544254 (Clinical and Experimental Allergy, 2022).

A value given as a limit tells only on which side of the number the result lay.

The target of data set [1] is Tissue plasminogen activator (Homo sapiens, UniProt P00750). In words: isolated enzyme kinetic fluorogenic substrate IC50 assay. The class given is biochemical. Particulars: 5 min pre‐incubation.
Method: (§3) Protease inhibition was measured by monitoring the rate of fluorescence generation at a fixed substrate concentration over a range of inhibitor concentrations. […] To estimate the IC50, a 4‐parameter logistic dose‐response curve was fitted to the normalized rate of fluorescence increase.
In data set [2] the test system is HK cleavage. The experiment in a line: phase 2: DXS‐stimulated HK cleavage assay in HAE plasma after oral KVD900. It is filed as in vivo, human. The procedure:
(§1) Undiluted plasma samples obtained at pre‐dose and post‐dose from healthy controls and HAE patients from clinical trials with KVD900, described below, were stimulated with DXS, as described above. Reactions were stopped by rapidly heating samples to 95°C for 10 min in Laemmli buffer containing β‐mercaptoethanol. Components of the KKS in plasma samples (diluted 1:20) were separated by capillary electrophoresis using 12–230 kDa separation modules in the Protein Simple WES^TM system (ProteinSimple). Proteins were detected by immunoassay and quantified from peak areas corresponding to chemiluminescence intensities using Compass for Simple Western software (Version 4.0.0, ProteinSimple) and visualized as virtual blots generated from capillary electropherograms as previously described.[18] Standard curves were generated to estimate protein concentrations in plasma using known quantities of purified HK, plasma prekallikrein (PK), FXII and FXIIa (Enzyme Research Laboratories), spiked into HK (Affinity Biologicals), PK (Affinity Biologicals) and FXII (Technoclone) deficient plasma respectively. Immunodetection was performed using primary antibodies for PK (clone 13G11) (Invitrogen), HK and cHK: KNG17A12 Antibody (Molecular Innovations), FXII and FXIIa: FXII20B2 antibody (Molecular Innovations) and horseradish peroxidase‐conjugated secondary antibody. The anti‐HK light chain antibody used detected HK and two cHK bands. The total cHK was quantified by taking the sum of the peak areas for both cHK bands.
(§2) Participants with HAE were within their intercritical period. Blood samples were collected into 3.2% sodium citrate, centrifuged at 1500 g for 10 min at 4°C, and plasma was stored at −80°C until analysis. Additional information on these trials can be found elsewhere (NCT04349800 and NCT04208412, available at https://clinicaltrials.gov).

A further data set has as its target Trypsin. In words: isolated enzyme kinetic fluorogenic substrate IC50 assay. The class given is biochemical, human. As to conditions: 5 min pre‐incubation.
For data set [3], the target named is T1, PKa (Homo sapiens, UniProt P03952).
T1 construct: host or cells: human pooled plasma, stimulated with dextran sulphate
T1 sequence (P03952 391-638 limits assumed): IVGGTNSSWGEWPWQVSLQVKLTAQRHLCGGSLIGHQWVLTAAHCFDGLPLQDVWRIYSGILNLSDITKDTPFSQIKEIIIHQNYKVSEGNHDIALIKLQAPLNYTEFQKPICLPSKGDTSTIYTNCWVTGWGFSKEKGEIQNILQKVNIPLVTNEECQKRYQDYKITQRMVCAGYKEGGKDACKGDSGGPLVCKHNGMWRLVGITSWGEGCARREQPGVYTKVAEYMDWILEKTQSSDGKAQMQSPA
T1 sequence (P03952 20-390 partner limits assumed): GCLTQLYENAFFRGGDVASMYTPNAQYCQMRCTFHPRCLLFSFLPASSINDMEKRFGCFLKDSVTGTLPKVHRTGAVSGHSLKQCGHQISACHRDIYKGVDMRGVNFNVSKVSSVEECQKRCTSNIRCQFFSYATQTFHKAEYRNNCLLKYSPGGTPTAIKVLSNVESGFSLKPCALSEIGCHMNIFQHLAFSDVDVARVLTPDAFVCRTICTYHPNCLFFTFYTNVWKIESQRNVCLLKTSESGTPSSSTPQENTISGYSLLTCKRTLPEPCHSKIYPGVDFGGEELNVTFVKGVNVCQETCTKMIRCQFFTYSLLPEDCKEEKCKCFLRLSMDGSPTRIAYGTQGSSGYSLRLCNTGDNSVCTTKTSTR
In words: phase 1: DXS‐stimulated PKa activity in plasma after oral KVD900. Particulars: healthy male volunteers, 600 mg oral powder in capsule, read-out: inhibition of DXS‐stimulated PKa activity compared with pre‐dose. The class given is in vivo. Here is the method:
PKa enzyme activity was measured in human pooled plasma (control plasma, Affinity Biologicals) using H‐D‐Pro‐Phe‐Arg‐AFC. The KKS in plasma was stimulated by the addition of dextran sulphate 500 kDa (DXS; Sigma‐Aldrich). PKa activity in the plasma was estimated based on the maximum rate of fluorescence increase. […] Plasma samples were stimulated with 6.25 or 10 µg/ml DXS and PKa enzyme activity was measured as described above. Percent plasma protein binding (PPB %) was determined using Rapid Equilibrium Dialysis (Pierce RED technology, ThermoFisher Scientific). Compounds were spiked into control plasma (final concentration 5 μM) and dialysed against phosphate buffer (pH 7.4) for 5 h at 37°C. Samples were analysed using liquid chromatography‐tandem mass spectrometry to quantify the fraction of unbound compound.
as §2

Another data set addresses FXa (Homo sapiens, UniProt P00742). The experiment in a line: isolated enzyme kinetic fluorogenic substrate IC50 assay. It is filed as biochemical. As to conditions: 5 min pre‐incubation.
Another data set relates to FXII. The experiment in a line: phase 1: capillary immunoassay of FXII and FXIIa in DXS‐stimulated plasma after oral KVD900. Particulars: healthy volunteers, 600 mg oral. The class given is in vivo, human. The procedure:
as §1, §2

The next data set has as its target Renin (Homo sapiens, UniProt P00797). The experiment in a line: isolated enzyme kinetic fluorogenic substrate IC50 assay. It is filed as biochemical. Particulars: 5 min pre‐incubation.
In data set [4] the test system is HK cleavage. In words: phase 1: capillary immunoassay of HK and cHK in DXS‐stimulated plasma after oral KVD900. The class given is in vivo, human. As to conditions: 600 mg oral. Here is the method:
as §1, §2

For another data set, the target named is Beta‐secretase 1 (Homo sapiens, UniProt P56817). In words: isolated enzyme kinetic fluorogenic substrate IC50 assay. As to conditions: 5 min pre‐incubation. The class given is biochemical.
Beta‐secretase 1, sequence (P56817 46-501): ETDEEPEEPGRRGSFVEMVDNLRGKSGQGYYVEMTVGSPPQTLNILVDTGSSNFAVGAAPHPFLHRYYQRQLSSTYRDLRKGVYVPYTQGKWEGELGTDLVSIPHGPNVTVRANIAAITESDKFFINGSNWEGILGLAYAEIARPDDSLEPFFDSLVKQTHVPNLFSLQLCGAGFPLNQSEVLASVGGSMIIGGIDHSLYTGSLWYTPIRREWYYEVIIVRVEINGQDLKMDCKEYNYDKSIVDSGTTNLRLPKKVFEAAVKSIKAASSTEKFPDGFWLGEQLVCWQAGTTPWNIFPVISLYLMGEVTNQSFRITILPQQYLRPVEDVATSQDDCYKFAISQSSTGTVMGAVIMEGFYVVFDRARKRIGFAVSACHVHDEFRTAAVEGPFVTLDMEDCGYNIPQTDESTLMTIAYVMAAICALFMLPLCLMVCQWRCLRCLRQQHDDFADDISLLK
The target in data set [5] is T1, PKa. The experiment in a line: phase 2: DXS‐stimulated PKa activity in HAE plasma after oral KVD900. It is filed as in vivo. Particulars: HAE subjects (n = 12), 600 mg oral tablets; 45 min post‐dose.
The next data set addresses Cathepsin G (Homo sapiens, UniProt P08311). The experiment in a line: isolated enzyme kinetic fluorogenic substrate IC50 assay. It is filed as biochemical. Particulars: 5 min pre‐incubation.
Another data set has as its target FVIIa (Homo sapiens, UniProt P08709). Described as above. Particulars: 5 min pre‐incubation. It is filed as biochemical.
A further data set concerns PKa‐mediated HK cleavage. In words: capillary‐based immunoassay of DXS‐stimulated HK cleavage in control plasma. The class given is biochemical, human. Particulars: for DXS‐stimulated generation of cHK: 6.25 µg/ml DXS. Here is the method: as §1
A short description of data set [6]: phase 2: plasma concentrations of KVD900 in HAE subjects. The class given is in vivo. As to conditions: both sexes, human, HAE Type 1 and Type 2 subjects, 600 mg oral tablets, arithmetic mean, n = 42. The procedure: as §2
For a further data set, the target named is Tissue kallikrein (Homo sapiens, UniProt P06870). The experiment in a line: isolated enzyme kinetic fluorogenic substrate IC50 assay. It is filed as biochemical. As to conditions: 5 min pre‐incubation.
Tissue kallikrein, sequence (P06870 25-262): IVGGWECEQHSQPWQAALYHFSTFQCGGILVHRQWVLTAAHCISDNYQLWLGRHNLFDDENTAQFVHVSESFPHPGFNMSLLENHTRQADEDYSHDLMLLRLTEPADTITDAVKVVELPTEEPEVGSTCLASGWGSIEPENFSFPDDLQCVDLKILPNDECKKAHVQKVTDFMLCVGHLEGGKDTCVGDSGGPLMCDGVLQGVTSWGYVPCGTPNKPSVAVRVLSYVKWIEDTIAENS
A further data set addresses Plasmin (Homo sapiens, UniProt P00747). Described as above. It is filed as biochemical. As to conditions: 5 min pre‐incubation.
For the next data set, the target named is FXIa (Homo sapiens, UniProt P03951). The description is as above. The class given is biochemical. Particulars: 5 min pre‐incubation.
FXIa, sequence (P03951 388-625 limits assumed): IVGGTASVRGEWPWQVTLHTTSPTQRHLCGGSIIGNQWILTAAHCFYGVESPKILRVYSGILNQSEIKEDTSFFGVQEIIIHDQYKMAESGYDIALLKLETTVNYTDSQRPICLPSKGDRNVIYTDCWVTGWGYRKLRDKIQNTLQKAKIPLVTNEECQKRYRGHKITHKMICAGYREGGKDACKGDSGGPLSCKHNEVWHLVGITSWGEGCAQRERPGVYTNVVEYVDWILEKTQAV
FXIa, sequence (P03951 19-387 partner limits assumed): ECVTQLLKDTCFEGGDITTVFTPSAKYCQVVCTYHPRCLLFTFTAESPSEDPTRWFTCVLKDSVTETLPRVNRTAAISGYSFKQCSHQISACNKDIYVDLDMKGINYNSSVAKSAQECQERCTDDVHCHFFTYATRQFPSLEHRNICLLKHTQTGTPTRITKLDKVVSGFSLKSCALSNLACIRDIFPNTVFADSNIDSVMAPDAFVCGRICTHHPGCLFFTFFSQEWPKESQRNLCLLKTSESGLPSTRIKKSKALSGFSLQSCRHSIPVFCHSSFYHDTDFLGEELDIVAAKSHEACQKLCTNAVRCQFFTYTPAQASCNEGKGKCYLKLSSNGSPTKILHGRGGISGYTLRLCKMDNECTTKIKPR
The target of the next data set is Thrombin (Homo sapiens, UniProt P00734). The data set is described as above. The class given is biochemical. As to conditions: 5 min pre‐incubation.
The test system of data set [7] is plasma prekallikrein (PK). In words: phase 1: capillary immunoassay of PK in DXS‐stimulated plasma after oral KVD900. It is filed as in vivo, human. Particulars: healthy volunteers, 600 mg oral. Here is the method: as §1, §2
A further data set has as its target Cathepsin D (Homo sapiens, UniProt P07339). In words: isolated enzyme kinetic fluorogenic substrate IC50 assay. The class given is biochemical. Particulars: 5 min pre‐incubation.
Another data set addresses Tryptase. The description is as above. As to conditions: 5 min pre‐incubation. The class given is biochemical, human.
Data set [8] in a line: plasma protein binding, Rapid Equilibrium Dialysis. It is filed as in vitro ADME. Particulars: human, pH 7.4, control plasma, dialysed 5 h at 37°C, read-out: plasma protein binding (PPB) (converted). Here is the method:
PKa enzyme activity was measured in human pooled plasma (control plasma, Affinity Biologicals) using H‐D‐Pro‐Phe‐Arg‐AFC. The KKS in plasma was stimulated by the addition of dextran sulphate 500 kDa (DXS; Sigma‐Aldrich). PKa activity in the plasma was estimated based on the maximum rate of fluorescence increase. […] Percent plasma protein binding (PPB %) was determined using Rapid Equilibrium Dialysis (Pierce RED technology, ThermoFisher Scientific). Compounds were spiked into control plasma (final concentration 5 μM) and dialysed against phosphate buffer (pH 7.4) for 5 h at 37°C. Samples were analysed using liquid chromatography‐tandem mass spectrometry to quantify the fraction of unbound compound.

The target in another data set is FXIIa (Homo sapiens, UniProt P00748). In words: isolated enzyme kinetic fluorogenic substrate IC50 assay. The class given is biochemical. As to conditions: 5 min pre‐incubation.
FXIIa, sequence (P00748 373-615 limits assumed): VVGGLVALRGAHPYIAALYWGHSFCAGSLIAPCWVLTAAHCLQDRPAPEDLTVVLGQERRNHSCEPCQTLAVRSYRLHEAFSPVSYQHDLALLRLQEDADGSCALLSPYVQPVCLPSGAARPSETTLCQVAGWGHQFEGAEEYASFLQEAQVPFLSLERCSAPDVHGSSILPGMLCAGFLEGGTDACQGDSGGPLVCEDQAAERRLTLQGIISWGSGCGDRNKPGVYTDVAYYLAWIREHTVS
In data set [9] the test system is PKa. Also on record: method as in PMID 7692967. As to conditions: cited from earlier work.
Setting [10] is: six HAE patients, 600 mg oral tablets, 15 min through 4 h post‐dose.

Plasmin, sequence (P00747 581-810 limits assumed): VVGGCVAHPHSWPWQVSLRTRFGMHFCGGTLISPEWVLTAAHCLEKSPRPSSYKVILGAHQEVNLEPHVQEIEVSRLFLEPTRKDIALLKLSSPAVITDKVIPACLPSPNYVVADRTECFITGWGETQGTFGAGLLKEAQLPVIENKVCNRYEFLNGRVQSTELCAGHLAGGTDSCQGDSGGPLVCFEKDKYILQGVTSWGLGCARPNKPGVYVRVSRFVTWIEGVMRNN
Plasmin, sequence (P00747 97-580 partner limits assumed): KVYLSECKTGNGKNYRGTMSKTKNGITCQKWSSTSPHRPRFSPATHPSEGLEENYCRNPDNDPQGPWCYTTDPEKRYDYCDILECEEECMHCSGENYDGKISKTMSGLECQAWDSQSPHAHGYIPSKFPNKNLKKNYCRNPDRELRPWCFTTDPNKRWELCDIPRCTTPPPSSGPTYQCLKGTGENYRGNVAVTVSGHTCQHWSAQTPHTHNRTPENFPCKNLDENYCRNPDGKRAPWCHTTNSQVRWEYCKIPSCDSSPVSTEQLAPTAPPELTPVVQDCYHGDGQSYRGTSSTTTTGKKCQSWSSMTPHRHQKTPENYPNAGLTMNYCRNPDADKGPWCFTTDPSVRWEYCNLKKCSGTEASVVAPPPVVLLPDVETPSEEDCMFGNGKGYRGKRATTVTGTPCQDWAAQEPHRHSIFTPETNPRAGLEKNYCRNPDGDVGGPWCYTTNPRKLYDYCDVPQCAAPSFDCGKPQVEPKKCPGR
Renin, sequence (P00797 67-406): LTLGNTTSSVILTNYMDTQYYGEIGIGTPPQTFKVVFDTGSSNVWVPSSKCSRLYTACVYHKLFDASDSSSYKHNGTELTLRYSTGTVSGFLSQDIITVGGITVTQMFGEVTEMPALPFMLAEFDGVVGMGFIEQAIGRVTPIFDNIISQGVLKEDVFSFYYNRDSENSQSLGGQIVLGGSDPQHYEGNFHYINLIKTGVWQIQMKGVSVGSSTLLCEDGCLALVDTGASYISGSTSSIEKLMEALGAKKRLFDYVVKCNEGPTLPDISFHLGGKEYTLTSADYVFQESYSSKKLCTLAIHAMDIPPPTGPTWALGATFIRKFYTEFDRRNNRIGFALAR
FVIIa, sequence (P08709 213-466 limits assumed): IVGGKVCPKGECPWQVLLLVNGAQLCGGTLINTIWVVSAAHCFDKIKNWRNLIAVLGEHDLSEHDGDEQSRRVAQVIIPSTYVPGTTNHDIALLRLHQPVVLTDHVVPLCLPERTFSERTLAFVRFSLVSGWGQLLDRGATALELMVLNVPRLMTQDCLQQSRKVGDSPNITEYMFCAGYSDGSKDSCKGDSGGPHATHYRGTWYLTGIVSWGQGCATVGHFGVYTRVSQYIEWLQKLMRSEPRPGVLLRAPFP
FVIIa, sequence (P08709 61-212 partner limits assumed): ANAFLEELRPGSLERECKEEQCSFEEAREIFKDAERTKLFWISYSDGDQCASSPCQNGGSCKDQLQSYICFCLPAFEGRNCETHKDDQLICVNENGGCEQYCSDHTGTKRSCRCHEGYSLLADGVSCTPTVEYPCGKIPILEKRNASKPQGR
Cathepsin G, sequence (P08311 21-255): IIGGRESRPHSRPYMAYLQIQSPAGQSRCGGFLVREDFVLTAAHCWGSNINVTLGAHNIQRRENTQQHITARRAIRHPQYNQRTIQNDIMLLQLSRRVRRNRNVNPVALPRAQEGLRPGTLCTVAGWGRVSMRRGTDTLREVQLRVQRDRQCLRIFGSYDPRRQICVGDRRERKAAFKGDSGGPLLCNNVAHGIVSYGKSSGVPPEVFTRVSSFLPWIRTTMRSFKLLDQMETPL
Cathepsin D, sequence (P07339 65-412): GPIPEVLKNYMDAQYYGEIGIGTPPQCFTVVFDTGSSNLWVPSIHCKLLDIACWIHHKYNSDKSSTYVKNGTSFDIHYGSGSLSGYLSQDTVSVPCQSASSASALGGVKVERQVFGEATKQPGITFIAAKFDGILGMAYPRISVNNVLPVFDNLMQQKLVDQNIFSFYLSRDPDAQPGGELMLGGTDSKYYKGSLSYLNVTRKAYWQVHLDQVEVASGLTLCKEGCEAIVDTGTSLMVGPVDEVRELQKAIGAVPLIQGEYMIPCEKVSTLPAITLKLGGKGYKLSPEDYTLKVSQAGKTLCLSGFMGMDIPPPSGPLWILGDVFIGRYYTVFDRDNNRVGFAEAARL
FXa, sequence (P00742 235-488 limits assumed): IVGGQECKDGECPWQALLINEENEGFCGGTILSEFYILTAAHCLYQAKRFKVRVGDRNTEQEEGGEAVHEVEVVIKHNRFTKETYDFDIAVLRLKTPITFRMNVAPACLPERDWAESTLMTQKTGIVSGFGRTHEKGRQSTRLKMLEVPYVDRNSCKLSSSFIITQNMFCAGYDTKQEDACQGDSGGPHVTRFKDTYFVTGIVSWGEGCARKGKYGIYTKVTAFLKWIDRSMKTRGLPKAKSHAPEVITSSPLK
FXa, sequence (P00742 41-179 partner limits assumed): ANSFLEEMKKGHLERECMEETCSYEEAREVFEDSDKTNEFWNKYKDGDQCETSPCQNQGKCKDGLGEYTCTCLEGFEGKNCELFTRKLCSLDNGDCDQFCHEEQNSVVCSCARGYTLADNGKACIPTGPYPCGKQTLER
Method for Beta‐secretase 1: as §3
Method for Cathepsin D: as §3
Method for Cathepsin G: as §3
Method for FVIIa: as §3
Method for FXIa: as §3
Method for FXa: as §3
Method for Renin: as §3
Method for Thrombin: as §3
Method for Tissue kallikrein: as §3
Method for Trypsin: as §3
Method for Tryptase: as §3

For the molecule `COCc1nn(Cc2ccc(Cn3ccccc3=O)cc2)cc1C(=O)NCc1nccc(OC)c1F` [KVD900], the IC50 is more than 10 µM in data set [1]; more than 40 µM on Trypsin; more than 10 µM on FXa; more than 10 µM against Renin; more than 10 µM on Beta‐secretase 1; more than 10 µM at Cathepsin G. The IC50 was more than 10 µM against FVIIa; approximately 0.2 µM in the data set on PKa‐mediated HK cleavage (control plasma, 15 min pre‐treatment, 6.25 µg/ml DXS on ice 17 min, read-out: IC50, protection of HK from DXS‐stimulated depletion); more than 10 µM at Tissue kallikrein; more than 40 µM against Plasmin; more than 40 µM at FXIa; more than 40 µM against Thrombin. The IC50 on Cathepsin D was more than 10 µM; against Tryptase, more than 10 µM; against FXIIa, more than 40 µM. The “time post‐dose from which inhibition of HK cleavage (and PKa activity) is observed” value with HK cleavage [2] (600 mg oral) was determined as 15 min. Also, the “cHK levels in DXS‐stimulated plasma” value in the data set on HK cleavage [2] (setting [10]) is “comparable with unstimulated plasma”; with HK cleavage [4] (healthy volunteers, 1, 6 and 8 h post‐dose), “not significantly increased compared with pre‐dose without DXS”. Further, the “protection from DXS‐stimulated depletion of HK” value in the data set with HK cleavage [2] (setting [10]) is recorded as “strongly protected”. The inhibition at 600 mg at PKa [3] (1 h post‐dose) was more than 97%; on PKa [3] (4 h post‐dose), more than 97%; on PKa [3] (6 h post‐dose), more than 90%; on PKa [3] (8 h post‐dose), more than 83%; at PKa [5], not below 95%. The “FXII protection in DXS‐stimulated plasma compared with pre‐dose” value with FXII (1 and 6 h post‐dose) is listed as “non‐significant”. Further, the “reduction of DXS‐stimulated generation of FXIIa compared with pre‐dose” value with FXII (1 h post‐dose), in the data set on FXII (6 h post‐dose) and with FXII (8 h post‐dose) was more than 90% throughout. In the data set on HK cleavage [4], the “time for which DXS‐stimulated generation of cHK was not detectable” value is given as “at least 6 h”. For the same molecule, the “HK remaining after DXS‐stimulation” value with HK cleavage [4] (healthy volunteers, 1 to 8 hours post‐dose) was more than 65%. Further, the “DXS‐stimulated generation of cHK” value in the data set on PKa‐mediated HK cleavage (300 nM) and in the data set with PKa‐mediated HK cleavage (1000 nM) was “fully inhibited” each time. Moreover, the Cmax in [6] worked out at 6.57 µg/mL. Further, the Tmax in [6] turned out to be 1.2 h. Moreover, the “PK after DXS‐stimulation, % of unstimulated plasma” value in [7] (1 h post‐dose) is 82.7 ± 4.4%; in data set [7] (6 h post‐dose), 87.0± 4.1%. Besides, in data set [7] (later time points (≥8 h)), the “DXS‐stimulated decrease in PK” value is “comparable to the PK decrease observed in pre‐dose samples”. For the same molecule, the fraction unbound at 5 h, 5 μM in [8] is 0.23.

B1: C1‐INH: serine protease inhibitor (serpin) that covalently binds and inactivates PKa and FXIIa (protein, UniProt P05155 23-500, looked up)
Plasma protease C1 inhibitor: NPNATSSSSQDPESLQDRGEGKVATTVISKMLFVEPILEVSSLPTTNSTTNSATKITANTTDEPTTQPTTEPTTQPTIQPTQPTTQLPTDSPTQPTTGSFCPGPVTLCSDLESHSTEAVLGDALVDFSLKLYHAFSAMKKVETNMAFSPFSIASLLTQVLLGAGENTKTNLESILSYPKDFTCVHQALKGFTTKGVTSVSQIFHSPDLAIRDTFVNASRTLYSSSPRVLSNNSDANLELINTWVAKNTNNKISRLLDSLPSDTRLVLLNAIYLSAKWKTTFDPKKTRMEPFHFKNSVIKVPMMNSKKYPVAHFIDQTLKAKVGQLQLSHNLSLVILVPQNLKHRLEDMEQALSPSVFKAIMEKLEMSKFQPTLLTLPRIKVTTSQDMLSIMEKLEFFDFSYDLNLCGLTEDPDLQVSAMQHQTVLELTETGVEAAAASAISVARTLLVFEVQQPFLFVLWDQQHKFPVFMGRVYDPRA
Turning to B1, in the data set on PKa [9], the “reported Kon for PKa” value is 17000 M⁻¹ s⁻¹.

B2: DX‐2930: PKa inhibitor DX‐2930 (lanadelumab), approved treatment for HAE (antibody, chains of the INN, looked up, V domains shown)
VH: EVQLLESGGGLVQPGGSLRLSCAASGFTFSHYIMMWVRQAPGKGLEWVSGIYSSGGITVYADSVKGRFTISRDNSKNTLYLQMNSLRAEDTAVYYCAYRRIGVPRRDEFDIWGQGTMVTVSS
VL: DIQMTQSPSTLSASVGDRVTITCRASQSISSWLAWYQQKPGKAPKLLIYKASTLESGVPSRFSGSGSGTEFTLTISSLQPDDFATYYCQQYNTYWTFGQGTKVEIK
On to B2, for which the “reported Kon for PKa” value with PKa [9] is 3.4e+06 M⁻¹ s⁻¹.
